Data set [1] addresses T1, bovine epidermal transglutaminase (Bos taurus, UniProt A6QP57).
T1 sequence (A6QP57 1-691): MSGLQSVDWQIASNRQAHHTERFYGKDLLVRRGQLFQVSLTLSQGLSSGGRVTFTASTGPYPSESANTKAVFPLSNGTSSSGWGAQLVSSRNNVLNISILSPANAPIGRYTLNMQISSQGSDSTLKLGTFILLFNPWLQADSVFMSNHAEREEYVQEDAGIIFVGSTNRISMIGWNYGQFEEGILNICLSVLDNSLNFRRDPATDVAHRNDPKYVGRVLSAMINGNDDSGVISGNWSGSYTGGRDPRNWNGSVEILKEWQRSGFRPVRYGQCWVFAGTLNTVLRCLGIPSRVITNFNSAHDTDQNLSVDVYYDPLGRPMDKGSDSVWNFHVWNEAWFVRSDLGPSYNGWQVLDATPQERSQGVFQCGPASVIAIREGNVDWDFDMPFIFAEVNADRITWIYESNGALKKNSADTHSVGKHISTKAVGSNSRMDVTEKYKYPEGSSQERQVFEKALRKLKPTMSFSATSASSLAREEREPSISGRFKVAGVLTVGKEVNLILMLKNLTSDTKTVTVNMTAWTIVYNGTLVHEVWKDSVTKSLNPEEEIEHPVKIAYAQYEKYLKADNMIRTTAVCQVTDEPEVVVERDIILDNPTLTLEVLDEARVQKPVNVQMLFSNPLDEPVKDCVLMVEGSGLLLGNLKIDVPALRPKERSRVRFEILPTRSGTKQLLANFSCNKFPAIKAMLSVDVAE
The conditions noted are these: Castelhano et al., Bioorg. Chem. (1988) 16, 335-340; cited from earlier work.

The test system of data set [2] is fibrin clot. Briefly: stabilized fibrin clot formation. The class given is biochemical.
For data set [3], the target named is T2, factor XIIIa (Homo sapiens, UniProt P00488).
T2 sequence (P00488 39-732 limits assumed): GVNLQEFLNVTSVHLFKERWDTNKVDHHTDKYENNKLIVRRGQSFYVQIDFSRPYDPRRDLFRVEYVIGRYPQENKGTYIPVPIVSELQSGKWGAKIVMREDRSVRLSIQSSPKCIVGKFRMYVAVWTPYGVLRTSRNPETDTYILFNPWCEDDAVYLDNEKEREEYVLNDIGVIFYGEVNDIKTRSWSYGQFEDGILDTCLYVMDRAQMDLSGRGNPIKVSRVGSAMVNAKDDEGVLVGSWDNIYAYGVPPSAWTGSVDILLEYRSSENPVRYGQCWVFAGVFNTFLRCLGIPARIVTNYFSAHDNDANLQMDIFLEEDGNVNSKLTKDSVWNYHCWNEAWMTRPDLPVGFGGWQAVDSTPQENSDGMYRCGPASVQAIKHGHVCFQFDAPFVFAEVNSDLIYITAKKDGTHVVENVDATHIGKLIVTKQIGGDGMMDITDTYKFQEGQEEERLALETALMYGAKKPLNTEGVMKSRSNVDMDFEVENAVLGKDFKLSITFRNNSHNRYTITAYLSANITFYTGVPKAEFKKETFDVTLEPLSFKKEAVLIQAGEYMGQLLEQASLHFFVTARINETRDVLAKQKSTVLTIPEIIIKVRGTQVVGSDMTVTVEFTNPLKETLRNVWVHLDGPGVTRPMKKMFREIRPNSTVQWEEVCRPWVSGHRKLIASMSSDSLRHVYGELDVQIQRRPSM
The conditions noted are these: Proof of Principle Studies, ref [10]; cited from earlier work.

The target of data set [4] is T2, factor XIIIa. Briefly: factor XIIIa inhibition (IC50). The class given is biochemical. The conditions noted are these: ref [14], unpublished observations.
For data set [5], the system named is human blood clots. Briefly: in vitro assay of fibrinolysis (human blood clot lysis). The conditions noted are these: 250 μM compound, human whole blood clot, TPA; for fibrinogen (FITC-fibrinogen) release from clots: FIG. 2; for red blood cell release from the blood clots: absorbance 750 nm, FIG. 1. As for the experimental part:
A number of TGase inhibitors show promise for exploitation in therapeutic areas where TGase has been implicated. […] Compounds 1 and 3 were evaluated for stimulation of thrombolysis (human blood clot lysis) and associated release of embedded staphylococci using an in vitro assay of fibrinolysis as shown below.
Fresh human venous blood (1 ml) was collected by venepuncture in 13 mM citrate. After addition of Staphylococcus aureus NCTC 8325 (to 10^6 cfu/ml), tissue plasminogen activator (TPA, to 100 ng/ml) and FITC-labelled fibrinogen (to 10 μg/ml) aqueous solutions of compounds 1 or 3 (to 250 μM) or water (control), the blood was clotted by addition of CaCl2 (to 20 mM) and allowed to cross-link for 1 hr at 37° C. Blood clots were washed three times each in 1 ml sterile phosphate buffered saline (PBS), resuspended in 1 ml PBS containing 10 μg/ml TPA and incubated with shaking at 37° C. Samples of the clot suspending fluid were withdrawn at intervals and measured for red blood cell content (absorbance 750 nm), fibrinolysis (fluorescence) and release of Staphylococcus aureus (by viable counting).

Data set [6] concerns thrombus. The conditions noted are these: ref [11]; cited from earlier work.
Data set [7] concerns femoral artery thrombosis. The conditions noted are these: ref [11]; cited from earlier work.
Data set [8] can be described thus: release of inhibitor from coated polyurethane catheter. The class given is physicochemical. The conditions noted are these: polylactide-glycolide coating, phosphate buffered saline 37° C., over a 336 hour period, FIG. 4. As for the experimental part:
Catheter sections (2 cm, polyurethane Venflon, BD […]) were immersed in a solution of compound 3 (10 mg/ml), dissolved in polylactide-glycolide in dichloromethane (256 mg/ml) and allowed to dry in air. Individual sections were placed in 2 ml of phosphate buffered saline at 37° C. with constant shaking. Release of compound 3 was measured by assaying the phosphate buffered saline over a 336 hour period.

Where two headings read alike, the source gives them in different places.

As to `O=C(N[C@@H](Cc1ccccc1)C(=O)NCC1CC(Br)=NO1)OCc1ccccc1` (stereo partly drawn) [(S)-1-[(3-Bromo-4,5-dihydro-isoxazol-5-ylmethyl)-carbamoyl]-2-phenyl-ethyl}-carbamic acid benzyl ester], the “inhibition of bovine epidermal transglutaminase” value in data set [1] was “inhibitor”.

The IC50 is the concentration needed to halve the response being measured. `C[S+](C)CC(=O)CC[C@H](NC(=O)[C@H](Cc1ccccc1)NC(=O)OCc1ccccc1)C(=O)O` [Compound 1, N-benzyloxycarbonyl-L-phenylalanyl-6-dimethylsulfonium-5-oxo-L-norleucine]: the “inhibition of stabilized fibrin clot formation” value in data set [2] is “inhibit stabilized fibrin clot formation”. Besides, in data set [3], the IC50 was 30 µM. In data set [4], it took 50 µM to reach half-maximal inhibition (IC50). In data set [5], the “fibrinogen (FITC-fibrinogen) release from clots” value is “greatly increased” and the “red blood cell release from the blood clots” value is given as “increased”.

`C[S+](C)CC(=O)CC[C@H](NC(=O)[C@@H]1CCCN1C(=O)OCc1ccccc1)C(=O)O` [Compound 2, N-Benzyloxycarbonyl-L-prolinyl-6-dimethylsulfonium-5-oxo-L-norleucine] showed a half-inhibitory concentration (IC50) in data set [4] of 10 µM.

Take `CC(=O)CSc1n(C)cc[n+]1C` [Compound 3]: the thrombolysis in vitro result in data set [6] is given as “enhanced thrombolysis”. The “thrombolysis in a rabbit model of femoral artery thrombosis” value in data set [7] is listed as “enhanced thrombolysis”. The IC50 in data set [3] is 50 µM. Further, the “release of inhibitor from a coated catheter” value in data set [8] is recorded as “prolonged release”. Also, in data set [5], the “fibrinogen (FITC-fibrinogen) release from clots” value was “greatly increased” and the “red blood cell release from the blood clots” value is recorded as “increased”.

The values above are taken from US20080299170A1, “Medical Devices and Coatings Therefor” (Aston University, priority 2005, published 2008).
